Laboratory results from US20230136562A1, “SPIROUREA DERIVATIVES” (Idorsia Pharmaceuticals Ltd, priority 2020, published 2023).
Where two headings read alike, the source gives them in different places.

Test system: primary neuronal cultures from embryonic rat brains
Experiment: Rat oscillation assay (FLIPR, neuronal calcium oscillations)
Assay type: cell-based
Details: Rattus norvegicus
In short: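 Cortical neurons from E18 Wistar rat embryos, cultured 8–10 days at high density, loaded with 1 μM Fluo-8 AM; calcium oscillations recorded by FLIPR once per second in Mg-free HBSS with 2 mM CaCl2, 20 mM HEPES, pH 7.4. Two acquisitions ("Acute", 500 sec, compound added at 250 sec; "20 min"), ± Kv7 blocker XE-991.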

[1] = 20 min, AUC of fluorescence measured 20 min after compound addition, read-out: FLIPR: IC50 [nM] 20 min
[2] = Acute phase, ratio of AUC fluorescence before and after compound addition, read-out: FLIPR: IC50 [nM] acute

Row | SMILES | IC50 [1] [nM] | IC50 [2] [nM]
1 | CS(=O)(=O)CC(NC(=O)NC1CC2(CCC2)C1)c1cccc(OC(F)(F)F)c1 (racemic) [Example 64, (±)-1-[2-Methanesulfonyl-1-(3-trifluoromethoxy-phenyl)-ethyl]-3-spiro[3.3]hept-2-yl-urea] | 47 | 44
2 | COCC(Oc1cccc(CNC(=O)NC2CC3(CCC3)C2)n1)C(F)(F)F (racemic) [Example 104, (±)-1-Spiro[3.3]hept-2-yl-3-[6-(2,2,2-trifluoro-1-methoxymethyl-ethoxy)-pyridin-2-ylmethyl]-urea] | 295 | 292
3 | C[C@H](NC(=O)NC1CC2(CCC2)C1)c1cccc(OCC(F)(F)F)c1 (single isomer, unassigned) [Example 176] | 4.3 | 2.9
4 | CN(C)CC(NC(=O)NC1CC2(CCC2)C1)c1ccnc(OCC(F)(F)F)c1 (racemic) [Example 94, (±)-1-{2-Dimethylamino-1-[2-(2,2,2-trifluoro-ethoxy)-pyridin-4-yl]-ethyl}-3-spiro[3.3]hept-2-yl-urea] | 117 | 197
5 | COCC(NC(=O)NC1CC2(CCC2)C1)c1cccc(OCC(F)(F)F)c1 (racemic) [Example 91, (±)-1-{2-Methoxy-1-[3-(2,2,2-trifluoro-ethoxy)-phenyl]-ethyl}-3-spiro[3.3]hept-2-yl-urea] | 1.4 | 3.4
6 | O=C(NCc1cccc(OCC(F)(F)F)c1)NC1CC2(CCC2)C1 [Example 14, 1-Spiro[3.3]hept-2-yl-3-[3-(2,2,2-trifluoro-ethoxy)-benzyl]-urea] | 27 | 31
7 | CN(C)CC(Oc1cccc(CNC(=O)NC2CC3(CCC3)C2)n1)C(F)(F)F (racemic) [Example 105, (±)-1-[6-(1-Dimethylaminomethyl-2,2,2-trifluoro-ethoxy)-pyridin-2-ylmethyl]-3-spiro[3.3]hept-2-yl-urea] | 261 | 278
8 | CC(NC(=O)NC1CC2(CCC2)C1)c1ccnc(OC(F)F)c1 (racemic) [Example 100, (±)-1-[1-(2-Difluoromethoxy-pyridin-4-yl)-ethyl]-3-spiro[3.3]hept-2-yl-urea] | 3.6 | 5.9
9 | Cn1nnc(C(NC(=O)NC2CC3(CCC3)C2)c2cccc(C(F)(F)F)c2)n1 (racemic) [Example 164, (±)-1-[(2-Methyl-2H-tetrazol-5-yl)-(3-trifluoromethyl-phenyl)-methyl]-3-spiro[3.3]hept-2-yl-urea] | 619 | 267
10 | O=C(NC1CC2(CCC2)C1)NC(CCO)c1cc(OCC(F)(F)F)ncn1 (racemic) [Example 85, (±)-1-{3-Hydroxy-1-[6-(2,2,2-trifluoro-ethoxy)-pyrimidin-4-yl]-propyl}-3-spiro[3.3]hept-2-yl-urea] | 146 | 157
11 | CC(NC(=O)NC1CC2(CCC2)C1)c1ccc(F)c(OCC(F)(F)F)c1 (racemic) [Example 113, (±)-1-{1-[4-Fluoro-3-(2,2,2-trifluoro-ethoxy)-phenyl]-ethyl}-3-spiro[3.3]hept-2-yl-urea] | 22 | 33
12 | O=C(NCc1nccc(OCC(F)(F)F)n1)NC1CC2(CCC2)C1 [Example 112, 1-Spiro[3.3]hept-2-yl-3-[4-(2,2,2-trifluoro-ethoxy)-pyrimidin-2-ylmethyl]-urea] | 1420 | 1100
13 | CC(Oc1cc(F)cc(CNC(=O)NC2CC3(CCC3)C2)c1)C(F)(F)F (racemic) [Example 110, (±)-1-[3-Fluoro-5-(2,2,2-trifluoro-1-methyl-ethoxy)-benzyl]-3-spiro[3.3]hept-2-yl-urea] | 62 | 88
14 | O=C(NCc1cccc(S(=O)(=O)C(F)(F)F)c1)NC1CC2(CCC2)C1 [Example 42, 1-Spiro[3.3]hept-2-yl-3-(3-trifluoromethanesulfonyl-benzyl)-urea] | 22 | 27
